Reference: patent publication US20160115186A1, “PHOSPHORIC ACID/PHOSPHONIC ACID DERIVATIVES AND MEDICINAL USES THEREOF” (priority 2013, published 2016)
Where two headings read alike, the source gives them in different places.

How the values were obtained:
[1] = Evaluation of liver targeting property (active drug in liver and blood, HPLC-MS/MS); type: in vivo, Balb/C mice; conditions: intragastric, dose equimolar to fosfomycin 200 mg/kg, active drug (free phosphonic or phosphoric acid)
Source text: Instrument: Finnigan Co. USA, TSQ Quantum-type liquid chromatography-mass spectrometry (LC/MS/MS), consisting of Finnigan Surveyor LC pump. Surveyor AS automatic sampler, electrospray ionization source (ESI) and triple tandem mass spectrometer. The control software is X calibur 1.4, Lcquan 2.0 data processing system is used for mass spectrometry data analysis. The chromatography column is Discovery ODS column (250 mm×4.6 mm, 5 μm), C18 guard column (4 mm×3.0 mm), the mobile phase is methanol-water-formic acid (10-30:90-70:0.5, V/V/V), the flow rate is 0.7 ml/min; the sample amount is 20 μL; and the column temperature is room temperature.

[2] = tested on: Hep G 2.2.15 cells; experiment: in vitro; type: cell-based; conditions: MTT, day 3 post-dosing
Protocol: (§1) Hep G 2.2.15 cells were inoculated in a 96-well plate (with cell number being 5.5×10^4) to continually cultivate for 3 days, new culture solutions containing different concentrations of drugs were added, and 3 wells were provided in parallel; at day 3 post-dosing, MTT was added until 7.5 mg/ml, and continued to cultivate for 2 hours, the supernate was discarded, isopropanol containing 10% […] was added, 120 μl/well, and 0.4 μl/well was further added.

[3] = tested on: liver damage in mice caused by CCl4; type: in vivo, Kunmin mice; conditions: serum, CCl4 model, 0.2 mmol oral twice, 24 hours after second administration
Protocol: Kunmin mice (20 g) were grouped randomly (8/group). 0.2 mmol of a compound to be tested was orally administered; after 1 hour post-dosing, a 0.1% peanut oil solution of CCl4 was subcutaneously injected (10 mL/kg), to prepare a liver damage model; the normal saline was injected as a normal control group. After modeling for 12 hours, 0.2 mmol of the compound to be tested was orally administrated again. After 24 hours from the second administration, blood samples were collected to take serum specimen so as to determine ALT, AST.

[4] = tested on: liver damage in mice caused by D-aminogalactose; type: in vivo, Kunmin mice; conditions: serum, D-aminogalactose 750 mg/kg model, 0.2 mmol oral twice, 24 hours after second administration
Protocol: Kunmin mice (20 g) were grouped randomly (8/group). 0.2 mmol of a compound to be tested was orally administered; after 2 hours post-dosing, D-aminogalactose was intraperitoneally injected at a dose of 750 mg/kg to prepare a liver damage model, and the normal saline was subcutaneously injected as a normal control group. After modeling for 12 hours, 0.2 mmol of the compound to be tested was orally administrated again. After 24 hours from the second administration, blood samples were collected to take serum specimen so as to determine ALT, AST.

[5] = tested on: DHBV; experiment: animal or person; type: in vivo, sheldrakes; conditions: serum DHBV DNA; for inhibition in vivo at 1 mg/kg: Duck hepatitis B virus, po, 336 h, 1.0 mg/kg intragastric once a day for 14 days
Protocol: The sheldrakes infected by vertical transmission and being positive in DHBV DNA detection were grouped randomly, 5/group. Water and different doses of the compound to be tested were intragastrically administrated, respectively, once a day, for 14 days. Venous blood samples were collected pre-dosing, at day 14 of dosing and at day 7 after drug withdrawal, the serum DHBV DNA content was measured using external standard TaqMan real-time fluorescence PCR method, and the inhibition ratio was calculated, as compared to the solvent group.

[6] = tested on: HBV; experiment: microbe, parasite or virus in culture; type: cell-based; conditions: Hep G 2.2.15 cells, HBV DNA in supernate at day 10 post-dosing, read-out: IC50
Protocol: At day 10 post-dosing, 100 μl supernate was taken and the content of HBV DNA was measured by the method of Quantitative PCR to calculate IC50 value.

[7] = after MCC-478, phase I clinical trial, Chan et al. 2005; cited from earlier work
[8] = Kamiya et al. 2002; read-out: cytotoxicity CC50; cited from earlier work
[9] = in vitro; type: cell-based; conditions: human; Hep G 2.2.15 cells, MTT, day 3 post-dosing
Protocol: as §1

[10] = 10 mg/kg intragastric once a day for 14 days
[11] = 25 mg/kg intragastric once a day for 14 days

Compound: CC(C)OC(=O)C(C)NP(=O)(OCCOCn1cnc2c(=O)[nH]c(N)nc21)Oc1ccc2c(c1)OCO2 (centres unmarked) [Compound I27]
- Cliver/Cblood ([1]; 1 h post-dosing): 11.75
- Cliver/Cblood ([1]; 6 h post-dosing): 8.02
- CC50 [2]: > 200 µM
- ALT [3]: 663 U/L
- AST [3]: 940 U/L
- ALT [4]: 713 U/L
- AST [4]: 522 U/L
- Inhibition ratio (%) Day 14 of dosing [5, 10]: 80.6%
- Inhibition ratio (%) day 7 after drug withdrawal [5, 10]: 10.5%
- IC50 [6]: 0.035 µM

Compound: (benzo[1,3]dioxolan-5-yl) [5-[2-amino-5-(2-methylpropyl)-thiazol-4-yl]-furan-2-yl]-phosphonate-(1-isopropoxycarbonylethylamino)-phosphonamide [Compound I43]
- CC50 [2]: > 200 µM
- ALT [3]: 507 U/L
- AST [3]: 280 U/L
- ALT [4]: 256 U/L
- AST [4]: 517 U/L

Compound: CC(C)OC(=O)[C@H](C)N[P@](=O)(CO[C@H](C)Cn1cnc2c(N)ncnc21)Oc1ccc2c(c1)OCO2 [Compound I21-b]
- Cliver/Cblood ([1]; 1 h post-dosing): 9.15
- Cliver/Cblood ([1]; 6 h post-dosing): 14.37
- ALT [3]: 251 U/L
- AST [3]: 152 U/L
- ALT [4]: 514 U/L
- AST [4]: 268 U/L
- Inhibition ratio (%) Day 14 of dosing [5, 11]: 82.3%
- Inhibition ratio (%) day 7 after drug withdrawal [5, 11]: 39.2%
- IC50 [6]: 0.012 µM

Compound: CC(C)OC(=O)[C@H](C)N[P@@](=O)(CO[C@H](C)Cn1cnc2c(N)ncnc21)Oc1ccc2c(c1)OCO2 [Compound I21-a]
- Cliver/Cblood ([1]; 1 h post-dosing): 8.45
- Cliver/Cblood ([1]; 6 h post-dosing): 12.02
- ALT [3]: 353 U/L
- AST [3]: 191 U/L
- ALT [4]: 379 U/L
- AST [4]: 169 U/L
- Inhibition ratio (%) Day 14 of dosing [5, 11]: 70.8%
- Inhibition ratio (%) day 7 after drug withdrawal [5, 11]: 25.0%
- IC50 [6]: 0.15 µM

Compound: CC(C)OC(=O)[C@H](C)N[P@](=O)(CO[C@H](C)Cn1cnc2c(N)ncnc21)Oc1ccccc1.O=C(O)/C=C/C(=O)O [GS-7340, 9-[(R)-2-[[(S)-[[(S)-1-(isopropoxycarbonyl)-ethyl]-amino]-phenoxylphosphonyl]-methoxyl]-propyl]-adenine fumarate, reference compound]
- CC50 [2]: 94.2 µM
- ALT [3]: 2483 U/L
- AST [3]: 2645 U/L
- ALT [4]: 1064 U/L
- AST [4]: 1320 U/L
- IC50 [6]: 0.071 µM

Compound: COc1ccc(Sc2nc(N)nc3c2ncn3CCOCP(=O)(O)O)cc1 [Compound 602076]
- blood concentration relative to that of the monoester 602074 [7]: one tenth

Compound: CC(NP(=O)(OCCOCn1cnc2c(=O)[nH]c(N)nc21)Oc1ccc2c(c1)OCO2)C(=O)OC1CCCCC1 (centres unmarked) [Compound I28]
- CC50 [2]: > 200 µM

Compound: COc1ccc(Sc2nc(N)nc3c2ncn3CCOCP(=O)(O)OCC(F)(F)F)cc1 [Compound 602074]
- CC50 [8]: 548 µM

Compound: C=C1[C@H](CO[P@@](=O)(N[C@@H](C)C(=O)OC(C)C)Oc2ccccc2)[C@@H](O)C[C@@H]1n1cnc2c(=O)[nH]c(N)nc21 [i-5, 2-amino-1,9-dihydro-9-[(1S,3R,4S)-4-hydroxyl-3-((S)—((S)-1-isopropoxycarbonylethylamino-phenoxy-phosphoryl)-oxymethyl)-2-methylenecyclopentyl]-6H-purin-6-one, reference compound]
- CC50 [9]: 193 µM
- ALT [3]: 551 U/L
- AST [3]: 641 U/L
- ALT [4]: 1512 U/L
- AST [4]: 1646 U/L
- inhibition in vivo at 1 mg/kg ([5]; read-out: Inhibition ratio (%) Day 14 of dosing): 88.9%
- inhibition in vivo at 1 mg/kg ([5]; read-out: Inhibition ratio (%) day 7 after drug withdrawal): 15.7%
- IC50 ([6]; Hepatitis B virus, HepG2.2.15, 240 h): 0.012 µM

Compound: COC(=O)C(C)NP(=O)(OCCOCn1cnc2c(=O)[nH]c(N)nc21)Oc1ccc2c(c1)OCO2 (centres unmarked) [Compound I41]
- CC50 [2]: > 200 µM
- Inhibition ratio (%) Day 14 of dosing [5, 10]: 72.5%
- Inhibition ratio (%) day 7 after drug withdrawal [5, 10]: 15.7%
